In ChEMBL document CHEMBL4346657, “Anticancer activity, dual prooxidant/antioxidant effect and apoptosis induction profile of new bichalcophene-5-carboxamidines” (Eur J Med Chem, 2019):
Activity calls are given as the source filed them. The calls are words filed in the database; no cut-off is given here.

Tests used:
ACHN = test: Antiproliferative activity against human ACHN cells assessed as growth inhibition after 48 hrs by sulforhodamine B assay; type: functional
SN12C = test: Antiproliferative activity against human SN12C cells assessed as growth inhibition after 48 hrs by sulforhodamine B assay; type: functional
KM12 = test: Antiproliferative activity against human KM12 cells assessed as growth inhibition after 48 hrs by sulforhodamine B assay; type: functional; details: KM12, 48 h
HCT-116 [1] = test: Induction of apoptosis in human HCT116 cells assessed as increase in p53 mRNA expression at 100 nM after 6 hrs hrs by SYBR green dye-based qRT-PCR analysis relative to control; type: functional
SK-OV-3 = test: Antiproliferative activity against human SKOV3 cells assessed as growth inhibition after 48 hrs by sulforhodamine B assay; type: functional; details: SK-OV-3, 48 h
[2] = Selectivity index, ratio of IC50 for human WI38 cells to GI50 for human NCI60 cells
SF-268 = test: Antiproliferative activity against human SF268 cells assessed as growth inhibition after 48 hrs by sulforhodamine B assay; type: functional; details: SF-268, 48 h
SF-295 = test: Antiproliferative activity against human SF295 cells assessed as growth inhibition after 48 hrs by sulforhodamine B assay; type: functional; details: SF-295, 48 h
OVCAR-8 = test: Antiproliferative activity against human OVCAR8 cells assessed as growth inhibition after 48 hrs by sulforhodamine B assay; type: functional; details: OVCAR-8, 48 h
M14 = test: Antiproliferative activity against human M14 cells assessed as growth inhibition after 48 hrs by sulforhodamine B assay; type: functional; details: M14, 48 h
HOP-62 = test: Antiproliferative activity against human HOP62 cells assessed as growth inhibition after 48 hrs by sulforhodamine B assay; type: functional; details: HOP-62, 48 h
LOX IMVI = test: Antiproliferative activity against human LOXIMVI cells assessed as growth inhibition after 48 hrs by sulforhodamine B assay; type: functional
NCI-H23 = test: Antiproliferative activity against human NCI-H23 cells assessed as growth inhibition after 48 hrs by sulforhodamine B assay; type: functional; details: NCI-H23, 48 h
CAKI-1 = test: Antiproliferative activity against human CAKI-1 cells assessed as growth inhibition after 48 hrs by sulforhodamine B assay; type: functional; details: CAKI-1, 48 h
[3] = Antioxidant activity assessed as hydroxyl radical scavenging activity after 1 hr by salicylic acid-based Fenton reaction assay; type: functional
HCT-116 [4] = test: Induction of apoptosis in human HCT116 cells assessed as increase in caspase 9 mRNA expression at 100 nM after 6 hrs hrs by SYBR green dye-based qRT-PCR analysis relative to control; type: functional
OVCAR-5 = test: Antiproliferative activity against human OVCAR5 cells assessed as growth inhibition after 48 hrs by sulforhodamine B assay; type: functional; details: OVCAR-5, 48 h
HOP-92 = test: Antiproliferative activity against human HOP92 cells assessed as growth inhibition after 48 hrs by sulforhodamine B assay; type: functional; details: HOP-92, 48 h
HL-60(TB) = test: Antiproliferative activity against human HL-60(TB) cells assessed as growth inhibition after 48 hrs by sulforhodamine B assay; type: functional; details: HL-60, 48 h
[5] = Antioxidant activity assessed as ABTS radical scavenging activity by spectrophotometric analysis relative to control; type: functional; design: concentration or dose not given beside the values; details: dose or concentration not given here
[6] = Haemolytic activity in human erythrocytes assessed as induction of hemolysis at 2.5 mM after 30 mins relative to H202; type: cell-based, Erythrocyte; details: erythrocytes, read-out: Activity
UACC-62 = test: Antiproliferative activity against human UACC62 cells assessed as growth inhibition after 48 hrs by sulforhodamine B assay; type: functional; details: UACC-62, 48 h
[7] = Antioxidant activity assessed as DPPH radical scavenging activity incubated in dark for 30 mins by spectrophotometric method relative to ascorbic acid; type: functional
UO-31 = test: Antiproliferative activity against human UO31 cells assessed as growth inhibition after 48 hrs by sulforhodamine B assay; type: functional; details: UO-31, 48 h
RXF 393 = test: Antiproliferative activity against human RXF393 cells assessed as growth inhibition after 48 hrs by sulforhodamine B assay; type: functional; details: RXF 393, 48 h
A498 = test: Antiproliferative activity against human A498 cells assessed as growth inhibition after 48 hrs by sulforhodamine B assay; type: functional; details: A498, 48 h
HCT-116 [8] = test: Induction of apoptosis in human HCT116 cells assessed as increase in caspase 3 mRNA expression at 100 nM after 6 hrs hrs by SYBR green dye-based qRT-PCR analysis relative to control; type: functional
PC-3 = test: Antiproliferative activity against human PC3 cells assessed as growth inhibition after 48 hrs by sulforhodamine B assay; type: functional; details: PC-3, 48 h
DU-145 = test: Antiproliferative activity against human DU145 cells assessed as growth inhibition after 48 hrs by sulforhodamine B assay; type: functional; details: DU-145, 48 h
HCT-15 = test: Antiproliferative activity against human HCT15 cells assessed as growth inhibition after 48 hrs by sulforhodamine B assay; type: functional; details: HCT-15, 48 h
[9] = tested on: Panel NCI-60 (60 carcinoma cell lines); test: Antiproliferative activity against human NCI60 cells assessed as growth inhibition after 48 hrs by sulforhodamine B assay; type: functional
NCI-H460 = test: Antiproliferative activity against human NCI-H460 cells assessed as growth inhibition after 48 hrs by sulforhodamine B assay; type: functional; details: NCI-H460, 48 h
OVCAR-3 = test: Antiproliferative activity against human OVCAR3 cells assessed as growth inhibition after 48 hrs by sulforhodamine B assay; type: functional; details: OVCAR-3, 48 h
EKVX = test: Antiproliferative activity against human EKVX cells assessed as growth inhibition after 48 hrs by sulforhodamine B assay; type: functional
HT-29 = test: Antiproliferative activity against human HT-29 cells assessed as growth inhibition after 48 hrs by sulforhodamine B assay; type: functional; details: HT-29, 48 h
SR = test: Antiproliferative activity against human SR cells assessed as growth inhibition after 48 hrs by sulforhodamine B assay; type: functional
T47D = test: Antiproliferative activity against human T47D cells assessed as growth inhibition after 48 hrs by sulforhodamine B assay; type: functional

Compound	GI50 (ACHN)	GI50 (SN12C)	GI50 (KM12)	fold change (FC) (HCT-116 [1])	GI50 (SK-OV-3)	Selectivity Index [2]	GI50 (SF-268)	GI50 (SF-295)	GI50 (OVCAR-8)	GI50 (M14)	GI50 (HOP-62)	GI50 (LOX IMVI)	GI50 (NCI-H23)	GI50 (CAKI-1)	Activity [3]	fold change (FC) (HCT-116 [4])	GI50 (OVCAR-5)	GI50 (HL-60(TB))	inhibition [5]	hemolysis at 0.5 h, 2500 µM [6]	further results
N=C(N)c1ccc(-c2ccc(-c3ccc(F)cc3)o2)o1	1.6 µM	1.8 µM	1.44 µM	0.96	2.32 µM	7.2	1.92 µM	1.51 µM	1.98 µM	1.23 µM	1.6 µM	1.55 µM	1.93 µM	1.71 µM	Active	4.67	1.66 µM	1.8 µM	13.2%	17.6%	GI50 (HOP-92): 1.21 µM; GI50 (UACC-62): 1.74 µM; fold change (FC) [7]: 0.1; GI50 (UO-31): 1.43 µM; GI50 (RXF 393): 1.6 µM; GI50 (A498): 1.9 µM; fold change (FC) (HCT-116 [8]): 3.88; GI50 (PC-3): 1.22 µM; GI50 (DU-145): 1.8 µM; GI50 (HCT-15): 0.63 µM; GI50 [9]: 1.47 µM; LC50 [9]: 9.55 µM; TGI [9]: 3.46 µM; GI50 (NCI-H460): 1.76 µM; GI50 (OVCAR-3): 1.84 µM; GI50 (EKVX): 1.35 µM; GI50 (HT-29): 0.61 µM
N=C(N)c1ccc(-c2ccc(-c3ccc(F)cc3)s2)s1	1.71 µM	1.98 µM	1.71 µM	1.06	1.8 µM	7.5	1.69 µM	1.61 µM	2.23 µM	1.89 µM	1.64 µM	1.62 µM	1.8 µM	1.68 µM	Active	3.89	1.7 µM	1.4 µM	49.7%	14%	GI50 (SR): 1.17 µM; GI50 (T47D): 1.74 µM; GI50 (UACC-62): 1.94 µM; fold change (FC) [7]: 0.5; GI50 (UO-31): 1.77 µM; GI50 (RXF 393): 1.75 µM; GI50 (A498): 1.95 µM; fold change (FC) (HCT-116 [8]): 3.71; GI50 (PC-3): 1.77 µM; GI50 (DU-145): 1.72 µM; GI50 (HCT-15): 1.34 µM; GI50 [9]: 1.77 µM; LC50 [9]: 12 µM; TGI [9]: 3.54 µM; GI50 (NCI-H460): 1.89 µM; GI50 (OVCAR-3): 1.78 µM; GI50 (EKVX): 1.47 µM; GI50 (HT-29): 1.53 µM
COc1cc(-c2ccc(-c3ccc(C(=N)N)s3)s2)cc(OC)c1OC	1.78 µM	1.61 µM	1.73 µM	1.01	5.15 µM	34.4	1.74 µM	1.78 µM	2.62 µM	1.7 µM	1.97 µM	1.61 µM	2.61 µM	1.7 µM	Active	2.81	1.47 µM	2.7 µM	75.4%	11.3%	GI50 (SR): 1.83 µM; GI50 (HOP-92): 1.14 µM; GI50 (T47D): 1.7 µM; GI50 (UACC-62): 1.7 µM; fold change (FC) [7]: 0.7; GI50 (UO-31): 1.74 µM; GI50 (RXF 393): 1.66 µM; GI50 (A498): 2.25 µM; fold change (FC) (HCT-116 [8]): 2.67; GI50 (PC-3): 1.77 µM; GI50 (DU-145): 2.32 µM; GI50 (HCT-15): 1.91 µM; GI50 [9]: 1.91 µM; LC50 [9]: 20.9 µM; TGI [9]: 4.16 µM; GI50 (NCI-H460): 1.99 µM; GI50 (OVCAR-3): 2.22 µM; GI50 (EKVX): 1.92 µM; GI50 (HT-29): 1.24 µM
